Tests used:
[1] = Tribocharging of ibuprofen powder in V blenders, specific charge measured by Faraday cup; format: physicochemical
Protocol: Ibuprofen was chosen as the model blending powder 140 due to its ability to charge excessively and was evaluated in all the V blenders 110. The V blender materials were procured from McMaster-Carr (https://www.mcmaster.com/) and was fabricated at the University of Connecticut (https://uconn.edu/). Ibuprofen powder 140 was spread into thin layers onto aluminum foil and equilibrated overnight at 16% RH along with the V blender 110 before the blending experiments. Before starting the experiment, initial charge was measured using Faraday cup 200. The blender 110 was charged with the powder 140 and blended in all the blenders for different time intervals. After completion of the tribocharging experiment powder was collected in the Faraday cup 200 connected to a nano-coulombmeter to measure the charge, which was reported as charge to mass ratio, also known as specific charge (nC/g) (FIG. 9). All experiments were done in triplicate at room temperature and at 16% RH. Similar experiments were also performed using ibuprofen—excipient blends to understand equipment capability to mitigate electrostatic charging in other powders. For this study, Ibuprofen—Sugar sphere (500/600 μm) blends were evaluated using stainless steel (SS), stainless steel-PVC (SS-PVC), and PVC blenders. Sugar spheres is widely used excipient for sustained-release pellet formulations used in oral dosage forms therefore, selected for this study.
With reference to FIGS. 10-16, to study triboelectrification, a measured quantity 50 g of ibuprofen was loaded into the V blender 110 which were rotated at 13 rpm for different time intervals. The experiments were performed for different time intervals such as 2, 10, 20, 30, and 40 mins (respectively graphed as bars A-E in FIGS. 10-14) at 13 rpm and 16% relative humidity. […] Final charge with Al-PVC blender 110 of FIG. 6 as shown with the different graphed bars 12A-12E of the bar graph of FIG. 12 was negative in polarity, e.g., due to more interaction of ibuprofen with Aluminum. It can be observed after comparing specific charge from three blenders 110, the Al-PVC blender 110 of FIG. 6 can reduce charge (FIGS. 10-12).
Additionally, the graphs of these FIGS. are showing the charge in nC/g which might appear small but industrial manufacturing involves large scale handling of powders which leads to huge electrostatic charging.

[2] = Powder adhesion to blender wall (initial powder weight minus powder recovered); format: physicochemical
Protocol: Reference will now be to FIGS. 17A, 17B and 18. To investigate the impact of using the surface of the blender on powder adhesion to the blender material, the total powder adhesion was calculated by subtracting the amount of powder recovered and initial powder weight. […] This may be the result of significant adhesive forces between the blender wall and ibuprofen particles. The blender wall has an opposite charge as compared to ibuprofen particles therefore powder particles becomes attracted to the blender wall and deposit there due to image forces. Additionally, bipolar charging may occur due to this high level of powder adhesion which could further decrease the number of particle-blender wall collisions, further changing the powder charging dynamics.

CC(C)Cc1ccc(C(C)C(=O)O)cc1 (stereo not shown) [Ibuprofen]
charge accumulated compared with the PVC and Al blenders ([1]; Al-PVC blender, 13 rpm, 16% RH): significantly less
polarity of final charge ([1]; Al-PVC blender, 50 g, 13 rpm, 16% RH): negative
polarity of charge acquired ([1]; Aluminum blender, 50 g, 13 rpm, 2-40 mins, 16% RH): negatively
polarity of charge acquired ([1]; PVC blender, 50 g, 13 rpm, 2-40 mins, 16% RH): positively
polarity of charge acquired ([1]; PVC blender, 50 g, 13 rpm, 2-40 mins, 16% RH, listed as ibuprofen): positive charge
time of charge saturation ([1]; blending at 13 rpm, 16% RH): 30 min
polarity of charge acquired ([1]; stainless steel and PVC blender (SS-PVC)): negative charge
polarity of charge acquired ([1]; stainless steel blender (cGMP material)): negative charge
powder adhesion to the blender walls ([2]; dual-material blenders (Al-PVC, SS-PVC)): decrease in the powder adhesion
powder adhesion to the blender walls ([2]; metal or insulator (single-material) blenders): significant adhesion
